Legend:
[1] = tested on: dispersed rat pituitary cells; experiment: LH secretion by four-day-old primary culture of dispersed rat pituitary cells over 4 hours, radioimmunoassay for rat LH; type: cell-based; conditions: for NANOGRAMS OF LH SECRETED: Table I, 4-hour period; for relative potency, compared to LRF: in vitro LH release, confidence limits in parentheses
Procedure: The peptides prepared in the foregoing Example I are assayed in vitro using a four-day-old primary culture of dispersed rat pituitary cells and compared with LRF. The levels of LH secreted over a 4-hour period in response to the application of peptides are assayed by specific radioimmunoassay for rat LH. The results of testing are expressed in Table I herebelow: […]

[2] = tested on: dispersed rat pituitary cells; experiment: as above; type: cell-based; conditions: Table II, 4-hour period
[3] = in vivo test of agonistic potency compared with LRF
Procedure: The effectiveness of the peptide compositions prepared in Examples I and II is also tested in vivo, and the relative agonistic potencies of peptides determined in the in vitro assays reported above correlate well with the potencies obtained from in vivo tests.

Row | Compound | NANOGRAMS OF LH SECRETED ([1]; 0.1 nM peptide) | NANOGRAMS OF LH SECRETED ([1]; 0.3 nM peptide) | NANOGRAMS OF LH SECRETED ([1]; 1.0 nM peptide) | NANOGRAMS OF LH SECRETED ([1]; 3.0 nM peptide) | NANOGRAMS OF LH SECRETED ([2]; 0.3 nM peptide) | NANOGRAMS OF LH SECRETED ([2]; 1.0 nM peptide) | NANOGRAMS OF LH SECRETED ([2]; 3.0 nM peptide) | relative potency, compared to LRF [1] | relative potency, compared to LRF ([1]; Pro^9 -NEt]-LRF) | potency compared with LRF when tested in vivo [3] | NANOGRAMS OF LH SECRETED ([2]; 0.003 nM peptide) | NANOGRAMS OF LH SECRETED ([2]; 0.01 nM peptide) | NANOGRAMS OF LH SECRETED ([2]; 0.03 nM peptide) | NANOGRAMS OF LH SECRETED ([1]; 0.003 nM peptide) | NANOGRAMS OF LH SECRETED ([1]; 0.01 nM peptide) | NANOGRAMS OF LH SECRETED ([1]; 0.03 nM peptide) | relative potency, compared to LRF ([1]; listed as [D-His^6 (im-Bzl)]-LRF)
1 | CC(C)C[C@H](NC(=O)CNC(=O)[C@H](Cc1ccc(O)cc1)NC(=O)[C@H](CO)NC(=O)[C@H](Cc1c[nH]c2ccccc12)NC(=O)[C@H](Cc1c[nH]cn1)NC(=O)[C@@H]1CCC(=O)N1)C(=O)N[C@@H](CCCNC(=N)N)C(=O)N1CCC[C@H]1C(=O)NCC(N)=O [LRF, p-Glu-His-Trp-Ser-Tyr-Gly-Leu-Arg-Pro-Gly-NH2, reference compound] | 1255 nanograms | 1767 nanograms | 2167 nanograms | 2867 nanograms | 631 nanograms | 1001 nanograms | 1496 nanograms | – | – | – | – | – | – | – | – | – | –
2 | [D-His^6 (im-Bzl), Pro^9 -NEt]-LRF [Example II] | – | – | – | – | – | – | – | 217(57-952) times that of LRF | more than 200 times that of LRF | very significantly more potent than LRF | 895 nanograms | 1256 nanograms | 2008 nanograms | – | – | – | –
3 | p-Glu-His-Trp-Ser-Tyr-D-His(im-Bzl)-Leu-Arg-Pro-Gly-NH2 [Example I] | 2225 nanograms | 2667 nanograms | – | – | – | – | – | 12(5.8-24) times that of LRF | – | very significantly more potent than LRF | – | – | – | 885 nanograms | 1345 nanograms | 2150 nanograms | about 12 times that of LRF
